In brackets after ≈: the same amount, converted by molar mass. Like-named read-outs stand apart in the source and are kept apart here. Values belong to the compound of their own block, whether it stands above or below them.
Assays:
Mucor mucedo minus = assay: MIC in serial dilution test, Mucor mucedo minus; format: cell-based; conditions: 336 h, pH 6, Mucor mucedo minus, pH 6.0, 22° C., 14 days, read-out: MIC values, Mu. mu-
Experimental: (§1) The antimycotic activities of the compounds were measured by in vitro determination of the minimum inhibitory concentration (MIC) for yeasts, molds and dermatophytes.
(§2) 6 dermatophytes, 2 yeasts and 4 molds were used for testing with fungi, as follows:
Mucor mucedo minus (Mu.mu^-)
(§3) The minimum inhibitory concentration (MIC) was determined in serial dilution tests in test tubes. The volume of the liquid nutrient medium in each test tube was 4.5 ml.
(§4) The substances were dissolved in DMSO and diluted with sterile distilled water to 10 concentrations (100, 50, 25, 12.5, 6.25, 3.12, 1.56, 0.78, 0.39 and 0.19 μg/ml). 0.5 ml of each of these dilution steps was added to the liquid nutrient medium. Thus, a constant concentration of solvent in all the nutrient media was ensured, irrespective of the active compound concentration.
(§5) A comparison solution which contained only the solvent in appropriate concentration was included when carrying out each of the tests.
(§6) The individual strains were maintained on Sabouraud/beerwort agar slants and, before they were used in a test, they underwent a passage on a modified Sabouraud liquid nutrient medium. The strains were then harvested, washed and converted into a suspension of McFaerland 3 in the case of yeasts and molds and of McFaerland 4-5 in the case of dermatophytes.
(§7) The amount of material inoculated (inoculum) was 100 μl/test tube (inoculated densities: yeasts […] of the liquid nutrient medium was 6.0. After inoculation had taken place the fungi were incubated at 22° C. for 14 days.
(§8) The MIC was then determined. The concentration step at which growth was no longer visible on macroscopic inspection was used for the determination of the MIC. The comparison substance used was 1-(2-(2,4-dichlorophenyl)-2-(2,4-dichlorophenylmethoxy)ethyl)-1H-imidazoleas nitrate (compound A).

Candida tropicalis = assay: MIC in serial dilution test, Candida tropicalis; format: cell-based; conditions: 336 h
Experimental: as §1, §2
Candida tropicalis (C.trop.)
as §3, §4, §5, §6, §7, §8

Aspergillus fumigatus = assay: MIC in serial dilution test, Aspergillus fumigatus; format: cell-based
Experimental: as §1, §2
Aspergillus fumigatus (Asp.fu.)
as §3, §4, §5, §6, §7, §8

Candida albicans = assay: MIC in serial dilution test, Candida albicans; format: cell-based; conditions: 336 h
Experimental: as §1, §2
Candida albicans (C.alb.)
as §3, §4, §5, §6, §7, §8

Microsporum gypseum = assay: MIC in serial dilution test, Microsporum gypseum; format: cell-based; conditions: Nannizzia gypsea, 336 h
Experimental: as §1, §2
Microsporum gypseum (Mi.gyp.)
as §3, §4, §5, §6, §7, §8

Trichophyton verrucosum = assay: MIC in serial dilution test, Trichophyton verrucosum; format: cell-based; conditions: 336 h, pH 6, Trichophyton verrucosum, pH 6.0, 22° C., 14 days, read-out: MIC values, Tri. ve.
Experimental: as §1, §2
Trichophyton verrucosum (Tri.ve.)
as §3, §4, §5, §6, §7, §8

Microsporum canis = assay: MIC in serial dilution test, Microsporum canis; format: cell-based; conditions: 336 h, pH 6, Microsporum canis, pH 6.0, 22° C., 14 days, read-out: MIC values, Mi. can
Experimental: as §1, §2
Microsporum canis (Mi.can.)
as §3, §4, §5, §6, §7, §8

Absidia ramosa = assay: MIC in serial dilution test, Absidia ramosa; format: cell-based; conditions: Lichtheimia ramosa, 336 h, pH 6, Absidia ramosa; pH 6.0, 22° C., 14 days; read-out: MIC values, Abs. ra.
Experimental: as §1, §2
Absidia ramosa (Abs.ra.)
as §3, §4, §5, §6, §7, §8

Epidermophyton floccosum = assay: MIC in serial dilution test, Epidermophyton floccosum; format: cell-based; conditions: 336 h, pH 6, Epidermophyton floccosum, pH 6.0, 22° C., 14 days, read-out: MIC values, Ep. flo
Experimental: as §1, §2
Epidermophyton floccosum
as §3, §4, §5, §6, §7, §8

[1] = system: Trichophyton mentagrophytes; assay: MIC in serial dilution test, Trichophyton mentagrophytes; format: cell-based; conditions: 336 h, pH 6, Trichophyton mentagrophytes, pH 6.0, 22° C., 14 days, read-out: MIC values, Tri. me.
Experimental: as §1, §2
Trichophyton mentagrophytes
as §3, §4, §5, §6, §7, §8

Mucor mucedo plus = assay: MIC in serial dilution test, Mucor mucedo plus; format: cell-based; conditions: 336 h, pH 6, Mucor mucedo plus, pH 6.0, 22° C., 14 days, read-out: MIC values, Mu. mu+
Experimental: as §1, §2
Mucor mucedo plus (Mu.mu^+)
as §3, §4, §5, §6, §7, §8

Trichophyton rubrum = assay: MIC in serial dilution test, Trichophyton rubrum; format: cell-based; conditions: 336 h, pH 6, Trichophyton rubrum, pH 6.0, 22° C., 14 days, read-out: MIC values, Tri. ru.
Experimental: as §1, §2
Trichophyton rubrum (Tri.ru.)
as §3, §4, §5, §6, §7, §8

[2] = system: Salmonella typhimurium strains TA 1535, TA 1537, TA 1538, TA 98 and TA 100; assay: Potential to cause gene mutations in Salmonella typhimurium; format: cell-based; conditions: with or without metabolic activator (S 9 mix); 10-1,000 and 3.3-333.3 μg/plate
Experimental: Compound No. 19 was investigated for its potential to cause gene mutations in five Salmonella typhimurium strains TA 1535, TA 1537, TA 1538, TA 98 and TA 100.
The following concentrations were tested, both with metabolic activator (S 9 mix) and without metabolic activator.

[3] = Determination of the LD50 in rats by i.v. administration; format: in vivo; conditions: 12.5-100 mg/kg
Experimental: (§9) Determination of the LD50 of 1-(2-(2,4-di-chlorophenyl)-2-(3-(4-chlorophenylthio)propylamino)-ethyl)-1H-imidazole dihydrochloride (compound No. 19) in mice and rats by i.v. administration. In each case, 0 (0.9% NaCl solution), 12.5, 25.0, 50.0 and 100 mg/kg of body weight were injected i.v. into 5 groups of female and male animals.

[4] = Determination of the lethal dose in mice, single oral administration; format: in vivo; conditions: for LD100: oral, administration once
Experimental: (§10) Determination of the lethal dose of 1-(2-(2,4-dichlorophenyl)-2-(3-(4-chlorophenylthio)propylamino)ethyl)-1H-imidazole dihydrochloride (compound No. 19) in mice and rats on administration once.
(§11) In each case, oral doses of 0, 500, 1,000 and 3,000 mg/kg of body weight were administered to four groups of female and male animals.

[5] = Determination of the lethal dose in rats, single oral administration; format: in vivo; conditions: for LD100: oral, administration once
Experimental: as §10, §11

[6] = Determination of the LD50 in mice by i.v. administration; format: in vivo; conditions: 12.5-100 mg/kg
Experimental: as §9

[7] = pH 6, Candida tropicalis, pH 6.0, 22° C., 14 days, read-out: MIC values, C. trop
[8] = pH 6.0, 22° C., 14 days, read-out: MIC values, C. alb
[9] = Microsporum gypseum, pH 6.0, 22° C., 14 days, read-out: MIC values, Mi. gyp
[10] = oral, 500, 1,000 and 3,000 mg/kg

SMILES: Clc1ccc(C(Cn2ccnc2)NCCSc2ccc3ccccc3c2)c(Cl)c1 (centres unmarked) [compound 6]
MIC (Mucor mucedo minus): 12.5 mg/L (≈ 28.3 µM)

SMILES: Clc1ccc(COC(Cn2ccnc2)c2ccc(Cl)cc2Cl)c(Cl)c1 (centres unmarked) [A, 1-(2-(2,4-dichlorophenyl)-2-(2,4-dichlorophenylmethoxy)ethyl)-1H-imidazole, reference compound]
MIC (Candida tropicalis; pH 6, read-out: MIC values, C. trop): 12.5 mg/L (≈ 30 µM)
MIC values, Asp. fu. (Aspergillus fumigatus; Aspergillus fumigatus, pH 6.0, 22° C., 14 days): 3,12 μg/ml
MIC (Candida albicans; pH 6, read-out: MIC values, C. alb): 12.5 mg/L (≈ 30 µM)
MIC (Microsporum gypseum; pH 6, read-out: MIC values, Mi. gyp): 3.12 mg/L (≈ 7.5 µM)

SMILES: Cc1ccc(SCCCNC(Cn2ccnc2)c2ccc(Cl)cc2Cl)cc1 (centres unmarked) [compound 17]
MIC values, Asp. fu. (Aspergillus fumigatus; 20160 min, pH 6): 0,78 μg/ml

SMILES: Clc1ccc(C(Cn2ccnc2)NCCSc2ccc(Br)cc2)c(Cl)c1 (centres unmarked) [compound 4]
MIC values, Asp. fu. (Aspergillus fumigatus; 20160 min, pH 6): 6,25 μg/ml

SMILES: Cl.Cl.Clc1ccc(SCCCNC(Cn2ccnc2)c2ccc(Cl)cc2Cl)cc1 (centres unmarked) [Compound No. 19, 1-(2-(2,4-dichlorophenyl)-2-(3-(4-chlorophenylthio)propylamino)ethyl)-1H-imidazole dihydrochloride]
mutagenic activity [2]: No mutagenic activity whatever was observed
clinical signs [3]: Inactivity, necrotic tail, convulsions
LD100 ([4]; female): > 1,000 mg/kg
LD100 ([4]; male): > 500 mg/kg
clinical signs [4, 10]: Inactivity, convulsions
MIC values, Asp. fu. (Aspergillus fumigatus; 20160 min, pH 6): 0,78 μg/ml
LD100 ([5]; female): > 500 mg/kg
LD100 ([5]; male): > 1,000 mg/kg
clinical signs [5, 10]: Inactivity, ruffled fur, convulsions
clinical signs [6]: Inactivity, necrotic tail

Now from value to compound:

MIC values, Asp. fu. (Aspergillus fumigatus; 20160 min, pH 6): 0,39 μg/ml
SMILES: Clc1ccc(C(Cn2ccnc2)NCCCSc2ccc(Br)cc2)c(Cl)c1 (centres unmarked) [compound 24]

MIC values, Asp. fu. (Aspergillus fumigatus; 20160 min, pH 6): 0,78 μg/ml
SMILES: Clc1ccc(C(Cn2ccnc2)NCCCSc2ccc3ccccc3c2)c(Cl)c1 (centres unmarked) [compound 27]

MIC (Candida tropicalis; [7]): 6.25 mg/L (≈ 14.7 µM)
MIC (Trichophyton verrucosum): 0.39 mg/L (≈ 0.919 µM)
MIC (Microsporum canis): 6.25 mg/L (≈ 14.7 µM)
MIC (Mucor mucedo minus): 12.5 mg/L (≈ 29.5 µM)
MIC values, Asp. fu. (Aspergillus fumigatus; 20160 min, pH 6): 12,5 μg/ml
MIC (Absidia ramosa): 6.25 mg/L (≈ 14.7 µM)
MIC (Candida albicans; [8]): 12.5 mg/L (≈ 29.5 µM)
MIC (Epidermophyton floccosum): 3.12 mg/L (≈ 7.35 µM)
MIC (Microsporum gypseum; [9]): 3.12 mg/L (≈ 7.35 µM)
MIC [1]: 6.25 mg/L (≈ 14.7 µM)
MIC (Mucor mucedo plus): 12.5 mg/L
MIC (Trichophyton rubrum): 0.78 mg/L (≈ 1.84 µM)
SMILES: Fc1ccc(SCCCNC(Cn2ccnc2)c2ccc(Cl)cc2Cl)cc1 (centres unmarked) [compound 18]

MIC values, Asp. fu. (Aspergillus fumigatus; 20160 min, pH 6): 3,12 μg/ml
SMILES: Clc1ccc(SCCCNC(Cn2ccnc2)c2cccc3ccccc23)cc1 (centres unmarked) [compound 41]

MIC (Candida tropicalis; [7]): 25 mg/L (≈ 66.1 µM)
MIC (Trichophyton verrucosum): 3.12 mg/L (≈ 8.25 µM)
MIC (Microsporum canis): 25 mg/L (≈ 66.1 µM)
MIC (Mucor mucedo minus): 12.5 mg/L (≈ 33.1 µM)
MIC values, Asp. fu. (Aspergillus fumigatus; 20160 min, pH 6): 12,5 μg/ml
MIC (Absidia ramosa): 2.5 mg/L (≈ 6.61 µM)
MIC (Candida albicans; [8]): 12.5 mg/L (≈ 33.1 µM)
MIC (Epidermophyton floccosum): 3.12 mg/L (≈ 8.25 µM)
MIC (Microsporum gypseum; [9]): 6.25 mg/L (≈ 16.5 µM)
MIC [1]: 12.5 mg/L (≈ 33.1 µM)
MIC (Mucor mucedo plus): 12.5 mg/L
MIC (Trichophyton rubrum): 3.12 mg/L (≈ 8.25 µM)
SMILES: Clc1ccc(SCCCNC(Cn2ccnc2)c2cccs2)cc1 (centres unmarked) [compound 31]
